The values below come from patent US12404519B2 (priority 2013, dated 2025).

A word on the IC50: it is the concentration needed to halve the response being measured.

Where a SMILES comes first, the peptide text is derived from it.

Test [1] deals with Fusarium graminearum PH-1.
The next test has as its system pathogenic fungi. The following applies: pure protein added to in vitro antifungal assay medium; cited from earlier work.

`C[C@H](NC(=O)CN)C(=O)N[C@@H](CS)C(=O)N[C@@H](Cc1c[nH]cn1)C(=O)N[C@@H](CCCNC(=N)N)C(=O)N[C@@H](CCC(N)=O)C(=O)NCC(=O)N[C@@H](Cc1ccccc1)C(=O)NCC(=O)N[C@@H](Cc1ccccc1)C(=O)N[C@@H](C)C(=O)N[C@@H](CS)C(=O)N[C@@H](Cc1ccccc1)C(=O)N[C@@H](CS)C(=O)N[C@@H](Cc1ccc(O)cc1)C(=O)N[C@@H](CCCCN)C(=O)N[C@@H](CCCCN)C(=O)N[C@@H](CS)C(=O)O` [GMA-5C, GACHRQGFGFACFCYKKC] (H-GACHRQGFGFACFCYKKC-OH; N-terminus and C-terminus assumed): the “IC100 (concentration required for 100% inhibition of fungal growth)” value in test [1] is “about 24 μM”. This compound gave a concentration for half-maximal inhibition (IC50) in test [1] (24 h) of 6 to 12 µM.
“Rs-AFP2: small cysteine-rich protein isolated from radish seed (QKLCQRPSGTWSGVCGNNNACKNQCIRLEKARHGSCNYVFPAHKCICYFPC; UniProt P30230 30-80, looked up)”: the “Growth inhibition of pathogenic fungi in vitro” value in the test on pathogenic fungi is given as “inhibited the growth of many pathogenic fungi”.
As to “Rs-AFP1: small cysteine-rich protein isolated from radish seed (QKLCERPSGTWSGVCGNNNACKNQCINLEKARHGSCNYVFPAHKCICYFPC; UniProt P69241 30-80, looked up)”, the “Growth inhibition of pathogenic fungi in vitro” value with pathogenic fungi is listed as “inhibited the growth of many pathogenic fungi”.
